Data published in article PMC12669040, “Tumour-specific STING agonist synthesis via a two-component prodrug system” (Nature Chemistry, 2025).
Where “and” joins values, the source holds several entries; their conditions need not be identical. Equal values may be shown once. Read-outs that look alike come from different tables or passages of the source.

Tests used:
[1] = system: THP-1 Lucia ISG cells (interferon pathway); test: Potency test of purified dimers on THP-1 Lucia ISG reporter cells; assay type: cell-based, human; settings: for Raw readings: replicates 1-3; for fold induction at 0.000508053 µM: Concentration 0.508053 nM; for fold induction at 0.00152416 µM: Concentration 1.52416 nM; for fold induction at 0.00457247 µM: Concentration 4.57247 nM; for fold induction at 0.0137174 µM: Concentration 13.7174 nM; for fold induction at 0.123457 µM: Concentration 123.457 nM; for fold induction at 0.37037 µM: Concentration 370.37 nM; for fold induction at 1.11111 µM: Concentration 1111.11 nM; for fold induction at 10 µM: Concentration 10000 nM; for EC50: three biological replicates, mean ± s.d., read-out: EC50 THP-1
Method: Cells were pelleted (150g, 10 min) and resuspended in the growth medium (40% conditioned) at a density of 1 × 10^6 cells ml^−1. The cell suspension was dispensed (50 µl each well) into a lidded white 96-well plate (BrandTech 781665). Test compounds or DMSO control were diluted in the growth medium and sterilized by filtering through 0.22-µm polyethersulfone (PES) membranes (Merck SLGP033RS). […] Upon cooling down to room temperature, 50 µl of reconstituted luciferase substrate (InvivoGen QUANTI-Luc) was added to each well via the injector of the plate reader (Molecular Devices SpectraMax i3x), and the luminescence output was recorded (4 s delay, 0.1 s integration). Raw signals were divided by the averaged signal of the DMSO-treated control wells and reported in relative luminescence unit (RLU). The dose–response curve of each replicate was fitted individually using the standard 4PL model (GraphPad Prism). The EC50 value of each compound was averaged from three independent experiments and reported as mean ± s.e.m.

[2] = target: T1, wild-type human STING LBD (hSTINGwt 138-379) (Homo sapiens, UniProt Q86WV6, H232R); test: Isothermal titration calorimetry (ITC), reverse titration; assay type: binding
T1 construct: SUMO (N, cleaved yes); made in house; host or cells: Escherichia coli BL21 (DE3)
Method: Escherichia coli BL21 (DE3) (Thermo Scientific EC0114) was transformed with a pET28a plasmid (Genscript) harbouring the codon-optimized sequence of SUMO-hSTINGwt (aa138-379). Transformed BL21 cells were inoculated into LB medium (50 µg ml^−1 kanamycin) and incubated at 180 rpm, 37 °C overnight. The overnight culture was then diluted (1:100 dilution) in 2× YT medium (50 µg ml^−1 kanamycin) and incubated at 180 rpm, 37 °C until optical density at 600 nm (OD600) reached 0.6 (approximately 3 h). The bacterial culture was then cooled to 16 °C, induced with 0.5 mM isopropyl 1-thio-D-galactopyranoside and incubated overnight at 180 rpm, 16 °C. The bacterial cells were pelleted at 4,000g for 30 min, resuspended in 20 ml of lysis buffer (25 mM HEPES pH 7.5, 150 mM NaCl, 20 mM imidazole and 2 mM TCEP supplied with 2 tablets of cOmplete mini EDTA-free protease inhibitors) and disrupted by sonication on ice. The total lysate was clarified by centrifugation at 22,000g for 30 min. The supernatant was collected and filtered through a 0.45-µm filter (Millipore SLHAR33SS). The clarified lysate was then incubated on a roller with 10 ml bed volume of Ni-NTA resin (Thermo Scientific 88223) at 4 °C for 1 h. The Ni-NTA resin was then packed in a column, flushed with 20 ml of wash buffer (25 mM HEPES pH 7.5, 150 mM NaCl and 20 mM imidazole) and eluted with 40 ml of elution buffer (25 mM HEPES pH 8.0, 150 mM NaCl and 250 mM imidazole). The eluted protein was concentrated to approximately 5 ml (Millipore Amicon 10 kDa molecular weight cut-off (MWCO)) and buffer-exchanged into storage buffer (25 mM HEPES pH 7.5 and 150 mM NaCl). TCEP was then added to a final concentration of 2 mM, and 250 units of SUMO protease (Merck SAE0067) were added. The cleavage reaction mixture was left to stand at 4 °C overnight until LC–MS analysis indicated the completion of the cleavage reaction. The cleavage mixture was incubated with 10 ml bed volume of Ni-NTA resin on a roller at 4 °C for 1 h and packed in a disposable column. The flowthrough was collected, and the resin was further flushed with 20 ml of wash buffer. The eluted fractions were combined, concentrated and further purified by size-exclusion chromatography (Cytiva, Superdex 200 Increase 10/300 GL). The purified protein in storage buffer was concentrated to 330 µM (dimer concentration) as determined by bicinchoninic acid (BCA) assay, aliquoted, flash-frozen in liquid nitrogen and stored at −80 °C for future use.
The binding constants of purified dimers were measured by ITC (Malvern Panalytical AutoITC200) in a reverse-titration format. Stock DMSO solutions of each dimer were dissolved in titration buffer (25 mM HEPES pH 7.5 and 150 mM NaCl) to a final concentration of 25 µM and added to the titration cell. The syringe was filled with 250 µM of purified STING in a matching buffer. Titration was performed at 25 °C with the following parameters: 750 rpm stirring, 0.2 µl initial injection followed by 2-µl injections of the […] every 120 s. Titration of STING protein into blank buffer was separately performed and subtracted from the raw data before the analysis. The background-subtracted titration curves were fitted with the built-in Origin software using the standard one-site model.
Extended Data Fig. 2 Isothermal titration calorimetry (ITC) data for binding constant measurements. Purified hSTINGwt138-379 (250 μM of homodimer) was titrated into each dimer (25 μM) dissolved in a matching buffer (25 mM HEPES pH 7.5, 150 mM NaCl) at 25 °C and 750 rpm stirring. Binding constants were reported as the average from duplicate measurements.

[3] = Homo sapiens, THP1-Lucia ISG, 24 h, three replicates, read-out: Processed reporter response per replicate (reading relative to DMSO)
[4] = Homo sapiens, THP1-Lucia ISG, 24 h

T1 sequence (Q86WV6 138-379 H232R): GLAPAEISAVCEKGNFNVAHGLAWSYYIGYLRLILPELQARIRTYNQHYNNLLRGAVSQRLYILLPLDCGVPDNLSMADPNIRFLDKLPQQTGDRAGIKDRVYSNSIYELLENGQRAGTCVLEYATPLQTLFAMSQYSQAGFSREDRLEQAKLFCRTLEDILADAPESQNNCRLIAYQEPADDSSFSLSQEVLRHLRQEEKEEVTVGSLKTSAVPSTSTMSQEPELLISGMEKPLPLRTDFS

EC50 [1, 4] | SMILES | Raw readings ([1]; Conc 0.508053 nM) | Raw readings ([1]; Conc 1.52416 nM) | Raw readings ([1]; Conc 4.57247 nM) | Raw readings ([1]; Conc 13.7174 nM) | Raw readings ([1]; Conc 41.1523 nM) | Raw readings ([1]; Conc 123.457 nM) | Raw readings ([1]; Conc 370.37 nM) | Raw readings ([1]; Conc 1111.11 nM) | Raw readings ([1]; Conc 3333.33 nM) | Raw readings ([1]; Conc 10000 nM) | fold induction at 0.000508053 µM [1, 3] | fold induction at 0.00152416 µM [1, 3] | fold induction at 0.00457247 µM [1, 3] | fold induction at 0.0137174 µM [1, 3] | fold induction at 0.123457 µM [1, 3] | fold induction at 0.37037 µM [1, 3] | fold induction at 1.11111 µM [1, 3] | fold induction at 10 µM [1, 3] | further results
> 10000 nM | COc1cc2sc(C(=O)CCC(=O)O)cc2cc1CCCSc1cc2cc(C(=O)CCC(=O)O)sc2cc1OC [Compound D4] | 972 RLU and 1002 RLU and 881 RLU | 820 RLU and 522 RLU and 439 RLU | 921 RLU and 829 RLU and 583 RLU | 721 RLU and 644 RLU and 533 RLU | 942 RLU and 783 RLU and 992 RLU | 1083 RLU and 911 RLU and 1043 RLU | 775 RLU and 737 RLU and 829 RLU | 962 RLU and 1173 RLU and 1233 RLU | 1143 RLU and 434 RLU and 1233 RLU | 8812 RLU and 7169 RLU and 7929 RLU | 1.37 | 0.714 | 1.13 | 0.881 | 1.25 | 1.01 | 1.6 | 9.81 | fold induction at 0.0411523 µM ([1]; Homo sapiens, THP1-Lucia ISG, 24 h, Concentration 41.1523 nM, three replicates, read-out: Processed reporter response per replicate (reading relative to DMSO)): 1.07
112 ± 6 nM | COc1cc2sc(C(=O)CCC(=O)O)cc2cc1SCSc1cc2cc(C(=O)CCC(=O)O)sc2cc1OC [Compound D5] | 1203 RLU and 820 RLU and 682 RLU | 644 RLU and 783 RLU and 699 RLU | 790 RLU and 1094 RLU and 558 RLU | 2256 RLU and 4162 RLU and 2105 RLU | 27829 RLU and 66900 RLU and 34361 RLU | 93770 RLU and 170286 RLU and 89246 RLU | 121713 RLU and 224782 RLU and 129344 RLU | 143643 RLU and 288417 RLU and 167064 RLU | 169624 RLU and 310357 RLU and 172333 RLU | 161133 RLU and 278063 RLU and 147917 RLU |  | 0.881 |  |  | 128 | 166 | 196 | 220 | fold induction at 3.33333 µM ([1]; Homo sapiens, THP1-Lucia ISG, 24 h, Concentration 3333.33 nM, three replicates, read-out: Processed reporter response per replicate (reading relative to DMSO)): 232; Kd ([2]; 25 °C, average of duplicate measurements, read-out: Kd hSTINGwt (binding constant, ITC)): 32 nM; Kd ([2]; ITC run _01, read-out: Kd): 33 nM; Kd ([2]; ITC run _02, read-out: Kd): 31 nM
> 10000 nM | COc1cc2sc(C(=O)CCC(=O)O)cc2cc1SCCCSc1cc2cc(C(=O)CCC(=O)O)sc2cc1OC [Compound D6] | 775 RLU and 627 RLU and 744 RLU | 1043 RLU and 675 RLU and 1023 RLU | 1143 RLU and 972 RLU and 595 RLU | 992 RLU and 713 RLU and 1033 RLU | 501 RLU and 595 RLU and 1053 RLU | 890 RLU and 1002 RLU and 706 RLU | 1023 RLU and 470 RLU | 689 RLU and 699 RLU and 1023 RLU | 595 RLU and 992 RLU and 806 RLU | 722 RLU and 829 RLU and 644 RLU | 0.858 | 0.923 | 1.33 | 0.975 | 1.37 |  | 0.956 | 1.13 | 
